Test [1] concerns the target T1, ΔF508-CFTR (Homo sapiens, UniProt P13569, DEL508-508).
T1 construct: Primary lung epithelial cells homozygous for the Cystic Fibrosis-causing ΔF508 mutation; endogenous in cells; host or cells: primary human bronchial (lung) epithelial cells homozygous for ΔF508, differentiated at air-liquid interface
Briefly: hBE equivalent current (Ieq) assay. Type of test: cell-based. As to conditions: compound at 10 uM and VX-809 at 1 uM; primary hBE cells homozygous ΔF508; 24 hours treatment. How it is done:
Primary lung epithelial cells homozygous for the Cystic Fibrosis-causing ΔF508 mutation were differentiated for a minimum of 4 weeks in an air-liquid interface on Costar 24 well HTS filter plates prior to the equivalent current (Ieq) measurements. Cells were apically mucus-washed for 30 minutes 24h prior to treatment with compounds. The basolateral media was removed and replaced with media containing the compound of interest diluted to its final concentration from DMSO stocks. Treated cells were incubated at 37° C. and 5% CO2 for 24 hours. At the end of the treatment period, the media was changed to the Ieq experimental solution for 30 minutes before the experiment and plates are maintained in a CO2-free incubator during this period. The plates containing the cells were then placed in pre-warmed heating blocks at 36° C.±0.5 for 15 minutes before measurements are taken. The transepithelial voltage (VT) and conductance (GT) were measured using a custom 24 channel current clamp (TECC-24) with 24 well electrode manifold. The Ieq assay measurements were made following additions with standardized time periods: • 1. The baseline VT and GT values were measured for approximately 20 minutes. • 2. Benzamil was added to block ENaC for 15 minutes. • 3. Forskolin plus VX-770 were added to maximally activate ΔF508-CFTR for 27 minutes. • 4. Bumetanide was added to inhibit the NaK2Cl cotransporter and shut-off secretion of chloride.
The activity data captured was the area under the curve (AUC) for the traces of the equivalent chloride current. The AUC was collected from the time of the forskolin/VX-770 addition until the inhibition by bumetanide addition. Correction in response to compound treatment was scored as the increase in the AUC for compound-treated samples over that of vehicle-treated samples. (** indicates activity ≥200% of VX-809 (1 uM) with compound at 10 uM and VX-809 at 1 uM; * indicates activity 100-200% of VX-809 (1 uM) with compound at 10 uM and VX-809 at 1 uM. ^##indicates activity ≥200% of VX-809 (3 uM) with compound at 10 uM and VX-809 at 3 uM; ^#indicates activity 100-200% of VX-809 (3 uM) with compound at 10 uM and VX-809 at 3 uM

Test [2] addresses T1, ΔF508-CFTR. Description: Ussing measurements. Type of test: cell-based. The conditions noted are these: compound at 10 uM and VX-809 at 3 uM; primary hBE cells homozygous ΔF508; 24 hours treatment. The method, then: As discussed above, Ussing measurements are used to measure CFTR activity. In this method, primary lung epithelial cells (hBEs) homozygous for the Cystic Fibrosis-causing ΔF508 mutation are differentiated for a minimum of 4 weeks in an air-liquid interface on SnapWell filter plates prior to the Ussing measurements. Cells are apically mucus-washed for 30 minutes prior to treatment with compounds. The basolateral media is removed and replaced with media containing the compound of interest diluted to its final concentration from DMSO stocks. Treated cells are incubated at 37° C. and 5% CO2 for 24 hours. At the end of the treatment period, the cells on filters are transferred to the Ussing chamber and equilibrated for 30 minutes. The short-circuit current is measured in voltage clamp-mode (Vhold=0 mV), and the entire assay is conducted at a temperature of 36° C. −36.5° C. Once the voltages stabilized, the chambers are clamped, and data is recorded by pulse readings every 5 seconds. Following baseline current stabilization, the following additions can be applied and the changes in current and resistance of the cells can be monitored: • 1. Benzamil to the apical chamber to inhibit ENaC sodium channel. • 2. Forskolin to both chambers to activate ΔF508-CFTR by phosphorylation. • 3. Genistein to both chambers to potentiate ΔF508-CFTR channel opening. • 4. CFTRinh-172 to the apical chamber to inhibit ΔF508-CFTR Cl-conductance.
The inhibitable current (that current that is blocked by CFTRinh-172) is measured as the specific activity of the ΔF508-CFTR channel, and increases in response to compound in this activity over that observed in vehicle-treated samples are identified as the correction of ΔF508-CFTR function imparted by the compound tested.

T1 sequence (P13569 with tags, fused parts or gaps DEL508-508): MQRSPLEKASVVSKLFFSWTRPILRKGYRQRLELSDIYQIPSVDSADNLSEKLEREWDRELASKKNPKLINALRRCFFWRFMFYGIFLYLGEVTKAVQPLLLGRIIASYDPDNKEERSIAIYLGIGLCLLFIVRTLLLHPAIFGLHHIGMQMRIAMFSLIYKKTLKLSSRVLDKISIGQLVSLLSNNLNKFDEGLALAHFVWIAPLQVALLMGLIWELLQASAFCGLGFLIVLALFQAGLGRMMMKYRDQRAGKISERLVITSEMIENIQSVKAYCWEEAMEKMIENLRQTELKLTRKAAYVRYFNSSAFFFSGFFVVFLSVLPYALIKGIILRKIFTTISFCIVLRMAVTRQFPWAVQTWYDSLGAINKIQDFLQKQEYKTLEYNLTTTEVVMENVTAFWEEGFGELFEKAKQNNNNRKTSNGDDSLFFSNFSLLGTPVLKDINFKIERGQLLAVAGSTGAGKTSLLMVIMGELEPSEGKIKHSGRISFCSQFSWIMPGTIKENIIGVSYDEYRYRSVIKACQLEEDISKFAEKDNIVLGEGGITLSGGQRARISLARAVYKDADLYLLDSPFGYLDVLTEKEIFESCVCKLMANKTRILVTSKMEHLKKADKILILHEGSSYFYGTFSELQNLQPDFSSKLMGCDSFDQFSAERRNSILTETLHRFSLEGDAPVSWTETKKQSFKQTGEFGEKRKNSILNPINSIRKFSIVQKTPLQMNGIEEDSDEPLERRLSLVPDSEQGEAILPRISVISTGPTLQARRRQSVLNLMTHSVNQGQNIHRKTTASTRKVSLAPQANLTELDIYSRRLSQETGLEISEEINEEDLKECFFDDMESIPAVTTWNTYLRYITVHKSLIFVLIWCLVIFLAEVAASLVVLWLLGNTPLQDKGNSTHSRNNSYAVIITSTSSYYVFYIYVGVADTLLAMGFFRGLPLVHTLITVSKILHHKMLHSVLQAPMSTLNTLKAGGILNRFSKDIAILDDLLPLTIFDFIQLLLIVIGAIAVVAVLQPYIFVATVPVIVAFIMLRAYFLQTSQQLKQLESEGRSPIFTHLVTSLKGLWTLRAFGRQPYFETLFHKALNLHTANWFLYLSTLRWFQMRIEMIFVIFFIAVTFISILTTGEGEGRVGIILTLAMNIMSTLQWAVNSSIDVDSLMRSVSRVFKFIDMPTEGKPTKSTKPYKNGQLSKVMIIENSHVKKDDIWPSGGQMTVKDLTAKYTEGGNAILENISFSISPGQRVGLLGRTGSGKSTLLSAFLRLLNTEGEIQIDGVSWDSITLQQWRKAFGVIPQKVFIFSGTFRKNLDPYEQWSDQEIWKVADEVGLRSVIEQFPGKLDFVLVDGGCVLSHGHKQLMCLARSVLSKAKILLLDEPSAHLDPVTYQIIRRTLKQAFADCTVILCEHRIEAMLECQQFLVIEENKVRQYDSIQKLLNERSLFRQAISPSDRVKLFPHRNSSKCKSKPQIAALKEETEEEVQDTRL

In the case of `Cc1nnn(CCNC(=O)c2ncc(-c3ccccc3)s2)c1CO` [Example 9, N-(2-(5-(hydroxymethyl)-4-methyl-1H-1,2,3-triazol-1-yl)ethyl)-5-phenylthiazole-2-carboxamide], the “leq (AUC of equivalent chloride current, activity relative to VX-809)” value on ΔF508-CFTR [1] was “** (activity ≥200% of VX-809 (1 uM) with compound at 10 uM and VX-809 at 1 uM)”.
With `O=C(NCCc1nnc(CO)o1)c1ncc(-c2ccccc2)s1` [Example 7, N-(2-(5-(hydroxymethyl)-1,3,4-oxadiazol-2-yl)ethyl)-5-phenylthiazole-2-carboxamide], at ΔF508-CFTR [2], the “Ussing (CFTRinh-172 inhibitable current, activity relative to VX-809)” value was “## (activity ≥200% of VX-809 (3 uM) with compound at 10 uM and VX-809 at 3 uM)”. Moreover, the “leq (AUC of equivalent chloride current, activity relative to VX-809)” value on ΔF508-CFTR [1] was “** (activity ≥200% of VX-809 (1 uM) with compound at 10 uM and VX-809 at 1 uM)”.
Regarding `O=C(NC1CC(n2cc(CO)nn2)C1)c1ncc(-c2ccccc2)s1` (stereo not drawn) [Example 12, N-trans-3-(5-(hydroxymethyl)-1H-1,2,3-triazol-1-yl)cyclobutyl)-5-phenylthiazole-2-carboxamide], the “Ussing (CFTRinh-172 inhibitable current, activity relative to VX-809)” value on ΔF508-CFTR [2] is “## (activity ≥200% of VX-809 (3 uM) with compound at 10 uM and VX-809 at 3 uM)”.
Still for that read-out and setting: then `O=C(NC1CC(c2nnc(CO)o2)C1)c1ncc(-c2ccccc2)s1` (stereo not drawn) [Example 10, N-cis-3-(5-(hydroxymethyl)-1,3,4-oxadiazol-2-yl)cyclobutyl)-5-phenylthiazole-2-carboxamide], with “## (activity ≥200% of VX-809 (3 uM) with compound at 10 uM and VX-809 at 3 uM)”.
On to `O=C(NCCc1nnc(CO)s1)c1ncc(-c2ccccc2)s1` [Example 6, N-(2-(5-(hydroxymethyl)-1,3,4-thiadiazol-2-yl)ethyl)-5-phenylthiazole-2-carboxamide], for which, on ΔF508-CFTR [2], the “Ussing (CFTRinh-172 inhibitable current, activity relative to VX-809)” value is “## (activity ≥200% of VX-809 (3 uM) with compound at 10 uM and VX-809 at 3 uM)”. Also, the “leq (AUC of equivalent chloride current, activity relative to VX-809)” value at ΔF508-CFTR [1] was “** (activity ≥200% of VX-809 (1 uM) with compound at 10 uM and VX-809 at 1 uM)”.
For `O=C(NCCN1CCOCC1)c1ncc(-c2ccccc2)s1` [Example 3, N-(2-morpholinoethyl)-5-phenylthiazole-2-carboxamide], the “leq (AUC of equivalent chloride current, activity relative to VX-809)” value at ΔF508-CFTR [1] was “** (activity ≥200% of VX-809 (1 uM) with compound at 10 uM and VX-809 at 1 uM)”.
For `Cc1c(CO)nnn1CCNC(=O)c1ncc(-c2ccccc2)s1` [Example 8, N-(2-(4-(hydroxymethyl)-5-methyl-1H-1,2,3-triazol-1-yl)ethyl)-5-phenylthiazole-2-carboxamide], the “Ussing (CFTRinh-172 inhibitable current, activity relative to VX-809)” value on ΔF508-CFTR [2] is “## (activity ≥200% of VX-809 (3 uM) with compound at 10 uM and VX-809 at 3 uM)”. The “leq (AUC of equivalent chloride current, activity relative to VX-809)” value on ΔF508-CFTR [1] was “** (activity ≥200% of VX-809 (1 uM) with compound at 10 uM and VX-809 at 1 uM)”.
As for `COCCNC(=O)c1ncc(-c2ccccc2)s1` [Example 2, N-(2-methoxyethyl)-5-phenylthiazole-2-carboxamide], on ΔF508-CFTR [1], the “leq (AUC of equivalent chloride current, activity relative to VX-809)” value is “** (activity ≥200% of VX-809 (1 uM) with compound at 10 uM and VX-809 at 1 uM)”.
The same measure, in the same setting: the value for `O=C(NCCCn1ccnc1)c1ncc(-c2ccccc2)s1` [Example 4, N-(3-(1H-imidazol-1-yl)propyl)-5-phenylthiazole-2-carboxamide] was “** (activity ≥200% of VX-809 (1 uM) with compound at 10 uM and VX-809 at 1 uM)”; that for `Cn1nccc1CCCNC(=O)c1ncc(-c2ccccc2)s1` [Example 5, N-(3-(1-methyl-1H-pyrazol-5-yl)propyl)-5-phenylthiazole-2-carboxamide] was “* (activity 100-200% of VX-809 (1 uM) with compound at 10 uM and VX-809 at 1 uM)”.
For `C[C@@H](O)c1nnc(C2CC(NC(=O)c3ncc(-c4ccccc4)s3)C2)o1` (stereo partly drawn) [Example 11], the “Ussing (CFTRinh-172 inhibitable current, activity relative to VX-809)” value at ΔF508-CFTR [2] is “## (activity ≥200% of VX-809 (3 uM) with compound at 10 uM and VX-809 at 3 uM)”.
As for `O=C(NCC1CCCO1)c1ncc(-c2ccccc2)s1` (stereo not drawn) [Example 1, 5-phenyl-N-((tetrahydrofuran-2-yl)methyl)thiazole-2-carboxamide], the “leq (AUC of equivalent chloride current, activity relative to VX-809)” value on ΔF508-CFTR [1] was “** (activity ≥200% of VX-809 (1 uM) with compound at 10 uM and VX-809 at 1 uM)”.

Values taken from US10392378B2, “Derivatives of 5-phenyl- or 5-heteroarylathiazol-2-carboxylic amide useful for the treatment of inter alia cystic fibrosis” (Proteostasis Therapeutics, Inc., priority 2014, dated 2019).
